Assay results from ChEMBL document CHEMBL1201862, “PubChem BioAssay data set” (2004).
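A five-concentration, 48-hour dose response in 96-well plates underlies each endpoint, interpolated linearly between surrounding concentrations. Here, GI50 denotes the concentration required for 50% inhibition of growth.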 The source made the active and inactive calls. Rule as the data show it: active = GI50 up to about 1.1 µM and inactive = higher.

Experiments:
Test in all cases: NCI tumour cell line growth inhibition, 48 h
OVCAR-4 = tested on: OVCAR-4
UO-31 = tested on: UO-31
LOX IMVI = tested on: LOX IMVI
NCI/ADR-RES = tested on: NCI/ADR-RES
M14 = tested on: M14
SK-MEL-5 = tested on: SK-MEL-5
SK-MEL-28 = tested on: SK-MEL-28
SNB-19 = tested on: SNB-19
SF-539 = tested on: SF-539
TK-10 = tested on: TK-10
UACC-62 = tested on: UACC-62
SK-OV-3 = tested on: SK-OV-3
OVCAR-8 = tested on: OVCAR-8
U-251 = tested on: U-251
A549 = tested on: A549
OVCAR-3 = tested on: OVCAR-3
IGROV-1 = tested on: IGROV-1
MDA-MB-231 = tested on: MDA-MB-231
CCRF-CEM = tested on: CCRF-CEM
CAKI-1 = tested on: CAKI-1
MDA-N = tested on: MDA-N
COLO 205 = tested on: COLO 205
SF-268 = tested on: SF-268
HCC 2998 = tested on: HCC 2998
HL-60 = tested on: HL-60
RXF 393 = tested on: RXF 393
KM12 = tested on: KM12
RPMI-8226 = tested on: RPMI-8226
PC-3 = tested on: PC-3
OVCAR-5 = tested on: OVCAR-5
UACC-257 = tested on: UACC-257
SF-295 = tested on: SF-295
K562 = tested on: K562
DU-145 = tested on: DU-145
MCF7 = tested on: MCF7
SNB-75 = tested on: SNB-75
SR = tested on: SR
HCT-116 = tested on: HCT-116
SK-MEL-2 = tested on: SK-MEL-2
MDA-MB-435 = tested on: MDA-MB-435
NCI-H522 = tested on: NCI-H522
HOP-92 = tested on: HOP-92
EKVX = tested on: EKVX
SN12C = tested on: SN12C
NCI-H460 = tested on: NCI-H460
ACHN = tested on: ACHN
MOLT-4 = tested on: MOLT-4
T47D = tested on: T47D
HT-29 = tested on: HT-29
NCI-H23 = tested on: NCI-H23
Hs-578T = tested on: Hs-578T
HCT-15 = tested on: HCT-15
SW-620 = tested on: SW-620
HOP-62 = tested on: HOP-62
A498 = tested on: A498
Malme-3M = tested on: Malme-3M
786-0 = tested on: 786-0
NCI-H226 = tested on: NCI-H226

For CC(=O)O[C@H]1C(=O)[C@@]2(C)C(C(OC(=O)c3ccccc3)[C@]3(O)CC(OC(=O)[C@H](OC(=O)CCC(=O)O)C(NC(=O)c4ccccc4)c4ccccc4)C(C)=C1C3(C)C)C1(OC(C)=O)COC1C[C@@H]2OC(=O)CCC(=O)O (stereo partly specified), the GI50 (OVCAR-4) was > 50.6 µM (inactive) and the GI50 (UO-31) was 79.1 µM (inactive).

In the case of CCOC(=O)C(NC(=O)CC)(Nc1ccccc1OC)C(F)(F)F (stereo unspecified), the GI50 (LOX IMVI) was > 100 µM (inactive), the GI50 (NCI/ADR-RES) was > 100 µM (inactive) and the GI50 (M14) was > 100 µM (inactive). The GI50 (SK-MEL-5) was > 100 µM (inactive), the GI50 (SK-MEL-28) was > 100 µM (inactive) and the GI50 (SNB-19) was > 100 µM (inactive). The GI50 (SF-539) was > 100 µM (inactive), the GI50 (TK-10) was > 100 µM (inactive) and the GI50 (UACC-62) was > 100 µM (inactive). For the same molecule, the GI50 (SK-OV-3) was > 100 µM (inactive), the GI50 (OVCAR-8) was > 100 µM (inactive) and the GI50 (U-251) was > 100 µM (inactive). The GI50 (A549) was > 100 µM (inactive), the GI50 (OVCAR-3) was > 100 µM (inactive) and the GI50 (IGROV-1) was > 100 µM (inactive). For the same molecule, the GI50 (MDA-MB-231) was > 100 µM (inactive), the GI50 (CCRF-CEM) was > 100 µM (inactive) and the GI50 (CAKI-1) was 13 µM (inactive). The GI50 (MDA-N) was > 100 µM (inactive), the GI50 (COLO 205) was > 100 µM (inactive) and the GI50 (SF-268) was > 100 µM (inactive). For the same molecule, the GI50 (HCC 2998) was > 100 µM (inactive), the GI50 (HL-60) was > 100 µM (inactive) and the GI50 (RXF 393) was > 100 µM (inactive). For the same molecule, the GI50 (KM12) was > 100 µM (inactive), the GI50 (RPMI-8226) was > 100 µM (inactive) and the GI50 (PC-3) was > 100 µM (inactive). For the same molecule, the GI50 (OVCAR-5) was > 100 µM (inactive), the GI50 (UACC-257) was > 100 µM (inactive) and the GI50 (SF-295) was > 100 µM (inactive). For the same molecule, the GI50 (K562) was > 100 µM (inactive), the GI50 (DU-145) was > 100 µM (inactive) and the GI50 (MCF7) was > 100 µM (inactive). For the same molecule, the GI50 (SNB-75) was > 100 µM (inactive), the GI50 (SR) was > 100 µM (inactive) and the GI50 (HCT-116) was > 100 µM (inactive). The GI50 (SK-MEL-2) was > 100 µM (inactive), the GI50 (MDA-MB-435) was > 100 µM (inactive) and the GI50 (NCI-H522) was > 100 µM (inactive). The GI50 (OVCAR-4) was > 100 µM (inactive), the GI50 (HOP-92) was > 100 µM (inactive) and the GI50 (EKVX) was > 100 µM (inactive). For the same molecule, the GI50 (SN12C) was > 100 µM (inactive), the GI50 (NCI-H460) was > 100 µM (inactive) and the GI50 (ACHN) was > 100 µM (inactive). The GI50 (MOLT-4) was > 100 µM (inactive), the GI50 (T47D) was > 100 µM (inactive) and the GI50 (UO-31) was > 100 µM (inactive). The GI50 (HT-29) was > 100 µM (inactive), the GI50 (NCI-H23) was > 100 µM (inactive) and the GI50 (Hs-578T) was > 100 µM (inactive). The GI50 (HCT-15) was over 100 µM and the GI50 (SW-620) was > 100 µM (inactive).

For CCc1cc2c(c3c1CCCC3=O)CC1(Cc3ccc(C(=O)OC)cc3C1)C2 (stereo unspecified), the GI50 (LOX IMVI) was 84.5 µM (inactive), the GI50 (NCI/ADR-RES) was 76 µM (inactive) and the GI50 (M14) was 94.8 µM (inactive). The GI50 (SK-MEL-5) was 15 µM (inactive), the GI50 (SK-MEL-28) was 64 µM (inactive) and the GI50 (SNB-19) was > 100 µM (inactive). For the same molecule, the GI50 (SF-539) was > 100 µM (inactive), the GI50 (TK-10) was > 100 µM (inactive) and the GI50 (HOP-62) was > 100 µM (inactive). The GI50 (SK-OV-3) was > 100 µM (inactive), the GI50 (OVCAR-8) was > 100 µM (inactive) and the GI50 (U-251) was 82.8 µM (inactive). For the same molecule, the GI50 (A549) was 48.4 µM (inactive), the GI50 (OVCAR-3) was > 100 µM (inactive) and the GI50 (IGROV-1) was > 100 µM (inactive). The GI50 (MDA-MB-231) was > 100 µM (inactive), the GI50 (CCRF-CEM) was 29.3 µM (inactive) and the GI50 (CAKI-1) was 96.6 µM (inactive). The GI50 (MDA-N) was > 100 µM (inactive), the GI50 (COLO 205) was 47.9 µM (inactive) and the GI50 (SF-268) was > 100 µM (inactive). For the same molecule, the GI50 (HCC 2998) was 93.1 µM (inactive), the GI50 (HL-60) was 22.5 µM (inactive) and the GI50 (RXF 393) was 32.5 µM (inactive). The GI50 (KM12) was 30.6 µM (inactive), the GI50 (RPMI-8226) was 18.7 µM (inactive) and the GI50 (PC-3) was 14.4 µM (inactive). For the same molecule, the GI50 (OVCAR-5) was > 100 µM (inactive), the GI50 (UACC-257) was 32.1 µM (inactive) and the GI50 (SF-295) was 85.7 µM (inactive). For the same molecule, the GI50 (K562) was 22 µM (inactive), the GI50 (A498) was > 100 µM (inactive) and the GI50 (DU-145) was > 100 µM (inactive). For the same molecule, the GI50 (MCF7) was 24 µM (inactive), the GI50 (SNB-75) was 26.7 µM (inactive) and the GI50 (Malme-3M) was 49.2 µM (inactive). The GI50 (HCT-116) was 37.9 µM (inactive), the GI50 (SK-MEL-2) was > 100 µM (inactive) and the GI50 (786-0) was 84.5 µM (inactive). The GI50 (MDA-MB-435) was 37.2 µM (inactive), the GI50 (NCI-H522) was 51.1 µM (inactive) and the GI50 (OVCAR-4) was 40.9 µM (inactive). The GI50 (HOP-92) was 29.1 µM (inactive), the GI50 (EKVX) was 96.6 µM (inactive) and the GI50 (SN12C) was > 100 µM (inactive). The GI50 (NCI-H460) was > 100 µM (inactive), the GI50 (ACHN) was 25.6 µM (inactive) and the GI50 (MOLT-4) was 24.9 µM (inactive). The GI50 (T47D) was 65.2 µM (inactive), the GI50 (UO-31) was 48.3 µM (inactive) and the GI50 (HT-29) was 68.1 µM (inactive). The GI50 (NCI-H226) was > 100 µM (inactive), the GI50 (NCI-H23) was 85.7 µM (inactive) and the GI50 (Hs-578T) was > 100 µM (inactive). The GI50 (HCT-15) was over 100 µM and the GI50 (SW-620) was > 100 µM (inactive).
